We go through ten compounds from patent US20220370416A1, “COMPOUNDS AND METHODS FOR TARGETED DEGRADATION OF KRAS” (Arvinas Operations, Inc., priority 2020, published 2022).

The target of test [1] is T1, HiBit-KRAS^G12C (Homo sapiens, UniProt P01116, G12C). The test is described as follows: HiBit degradation assay in SW1573 HiBit-KRas^G12C cells. In kind it is cell-based. Also on record: expressed in transfected cells; host or cells: SW1573 (clone E6), modified pcDNA3.1 vector, TK promoter. As to conditions: 0.5% DMSO, 24 hours; for Dmax: SW1573, SW1573 HiBit-KRas^G12C, read-out: KRas^G12C-HiBiT (SW1573; 0.5% DMSO) Dmax**; for DC50: read-out: KRas^G12C-HiBiT (SW1573; 0.5% DMSO) IC50***. Summed up: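 HiBit-KRAS G12C degradation was measured after a 24 h compound exposure (titrated 10 μM–20 nM) in engineered SW1573 cells. Lytic HiBit luminescence, expressed relative to DMSO controls, yielded DC50 and Dmax from 4-parameter fits. Concentrations causing ≥50% loss in alamar blue viability were omitted as cytotoxic.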
For orientation: HiBiT is a short tag that completes a luciferase, so light tracks the accessible tagged protein.

Test [2] addresses T1, HiBit-KRAS^G12C. The test can be described thus: HiBit degradation assay in MiaPaCa-2 HiBit-KRas^G12C cells. Type of test: cell-based. To be noted: 0.5% DMSO, 24 hours; for Dmax: MIA PaCa-2, MiaPaCa-2 HiBit-KRas^G12C cells, read-out: KRas^G12C-HiBiT (MiaPaCa; 0.5% DMSO) DMax; for DC50: read-out: KRas^G12C-HiBiT (MiaPaCa; 0.5% DMSO) IC50. Summed up:
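DC50 and Dmax come from 4-parameter fits of DMSO-normalized HiBit luminescence after 24 hours' exposure at 37° C to 10 μM–20 nM compound in 0.1% or 0.5% DMSO. Cells: MiaPaCa-2 carrying one endogenously HiBit-tagged KRAS^G12C allele; concentrations causing ≥50% […] viability loss (alamar blue) excluded.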

[3] abbreviates: MiaPaCa-2 HiBit-KRas^G12C cells.

T1 sequence (P01116 1-186 isoform P01116-2 G12C limits assumed): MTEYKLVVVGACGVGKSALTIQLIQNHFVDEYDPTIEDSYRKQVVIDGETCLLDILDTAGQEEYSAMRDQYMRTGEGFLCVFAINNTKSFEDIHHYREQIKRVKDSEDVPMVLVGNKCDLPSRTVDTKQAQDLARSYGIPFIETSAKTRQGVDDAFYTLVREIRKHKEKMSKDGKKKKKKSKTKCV

As for `C=C(F)C(=O)N1CCN(c2nc(O[C@H](C)CN3CCC(COc4cc([C@H](C(=O)N5C[C@H](O)C[C@H]5C(=O)N[C@@H](C)c5ccc(-c6scnc6C)cc5)C(C)C)on4)CC3)nc3c(F)c(-c4cc(O)cc5ccccc45)c(Cl)cc23)C[C@@H]1CC#N` [Compound 155, (2S,4R)-1-[(2R)-2-[3-({1-[(2R)-2-({6-chloro-4-[(3S)-3-(cyanomethyl)-4-(2-fluoroprop-2-enoyl)piperazin-1-yl]-8-fluoro-7-(3-hydroxynaphthalen-1-yl)quinazolin-2-yl}oxy)propyl]piperidin-4-yl}methoxy)-1,2-oxazol-5-yl]-3-methylbutanoyl]-4-hydroxy-N-[(1S)-1-[4-(4-methyl-1,3-thiazol-5-yl)phenyl]ethyl]pyrrolidine-2-carboxamide], the Dmax on HiBit-KRAS^G12C [1] and at HiBit-KRAS^G12C [2] (maximum degradation) was less than 35% each time. Further, the DC50 on HiBit-KRAS^G12C [1] (SW1573 HiBit-KRas^G12C) and on HiBit-KRAS^G12C [2] (setting [3]) was 100 to 1000 nM in each case.
Consider `C=C(F)C(=O)N1CCN(c2nc(OCCN3CCC(COc4cc([C@H](C(=O)N5C[C@H](O)C[C@H]5C(=O)N[C@@H](C)c5ccc(-c6ccnn6C)cc5)C(C)C)on4)CC3)nc3c(F)c(-c4cc(O)cc5ccccc45)c(Cl)cc23)C[C@@H]1CC#N` [Compound 156, (2S,4R)-1-[(2R)-2-[3-({1-[2-({6-chloro-4-[(3S)-3-(cyanomethyl)-4-(2-fluoroprop-2-enoyl)piperazin-1-yl]-8-fluoro-7-(3-hydroxynaphthalen-1-yl)quinazolin-2-yl}oxy)ethyl]piperidin-4-yl}methoxy)-1,2-oxazol-5-yl]-3-methylbutanoyl]-4-hydroxy-N-[(1S)-1-[4-(1-methyl-1H-pyrazol-5-yl)phenyl]ethyl]pyrrolidine-2-carboxamide], for which the DC50 at HiBit-KRAS^G12C [1] (SW1573 HiBit-KRas^G12C) is less than 100 nM; at HiBit-KRAS^G12C [2] (setting [3]), 100 to 1000 nM.
For `C=CC(=O)N1CCN(c2nc(OCCN3CCC(COc4cc([C@H](C(=O)N5C[C@H](O)C[C@H]5C(=O)N[C@@H](C)c5ccc(-c6ccnn6C)cc5)C(C)C)on4)CC3)nc3c(F)c(-c4cc(O)cc5ccccc45)c(Cl)cc23)C[C@@H]1CC#N` [Compound 157, (2S,4R)-1-[(2R)-2-[3-({1-[2-({6-chloro-4-[(3S)-3-(cyanomethyl)-4-(prop-2-enoyl)piperazin-1-yl]-8-fluoro-7-(3-hydroxynaphthalen-1-yl)quinazolin-2-yl}oxy)ethyl]piperidin-4-yl}methoxy)-1,2-oxazol-5-yl]-3-methylbutanoyl]-4-hydroxy-N-[(1S)-1-[4-(1-methyl-1H-pyrazol-5-yl)phenyl]ethyl]pyrrolidine-2-carboxamide], in that order: less than 100 nM and 100 to 1000 nM.
For `C=C(F)C(=O)N1CCN(c2nc(OCCN3CCC(COc4cc([C@@H](C(=O)N5C[C@H](O)C[C@H]5C(=O)N[C@@H](C)c5ccc(-c6ccnn6C)cc5)C(C)C)on4)CC3)nc3c(F)c(-c4cc(O)cc5ccccc45)c(Cl)cc23)C[C@@H]1CC#N` [Compound 158, (2S,4R)-1-[(2S)-2-[3-({1-[2-({6-chloro-4-[(3S)-3-(cyanomethyl)-4-(2-fluoroprop-2-enoyl)piperazin-1-yl]-8-fluoro-7-(3-hydroxynaphthalen-1-yl)quinazolin-2-yl}oxy)ethyl]piperidin-4-yl}methoxy)-1,2-oxazol-5-yl]-3-methylbutanoyl]-4-hydroxy-N-[(1S)-1-[4-(1-methyl-1H-pyrazol-5-yl)phenyl]ethyl]pyrrolidine-2-carboxamide], in that order: more than 1000 nM and more than 1000 nM.
For `C=CC(=O)N1CCN(c2nc(OCCN3CCC(COc4cc([C@@H](C(=O)N5C[C@H](O)C[C@H]5C(=O)N[C@@H](C)c5ccc(-c6ccnn6C)cc5)C(C)C)on4)CC3)nc3c(F)c(-c4cc(O)cc5ccccc45)c(Cl)cc23)C[C@@H]1CC#N` [Compound 159, (2S,4R)-1-[(2S)-2-[3-({1-[2-({6-chloro-4-[(3S)-3-(cyanomethyl)-4-(prop-2-enoyl)piperazin-1-yl]-8-fluoro-7-(3-hydroxynaphthalen-1-yl)quinazolin-2-yl}oxy)ethyl]piperidin-4-yl}methoxy)-1,2-oxazol-5-yl]-3-methylbutanoyl]-4-hydroxy-N-[(1S)-1-[4-(1-methyl-1H-pyrazol-5-yl)phenyl]ethyl]pyrrolidine-2-carboxamide], in that order: more than 1000 nM and more than 1000 nM.
As for `C=CC(=O)N1CCN(c2nc(OCCN3CCC(COc4cc([C@H](C(=O)N5C[C@H](O)C[C@H]5C(=O)N[C@@H](C)c5ccc(C#N)cc5)C(C)C)on4)CC3)nc3c(F)c(-c4cc(O)cc5ccccc45)c(Cl)cc23)C[C@@H]1CC#N` [Compound 160, (2S,4R)-1-[(2R)-2-[3-({1-[2-({6-chloro-4-[(3S)-3-(cyanomethyl)-4-(prop-2-enoyl)piperazin-1-yl]-8-fluoro-7-(3-hydroxynaphthalen-1-yl)quinazolin-2-yl}oxy)ethyl]piperidin-4-yl}methoxy)-1,2-oxazol-5-yl]-3-methylbutanoyl]-N-[(1S)-1-(4-cyanophenyl)ethyl]-4-hydroxypyrrolidine-2-carboxamide], the DC50 on HiBit-KRAS^G12C [1] (SW1573 HiBit-KRas^G12C) was more than 1000 nM; on HiBit-KRAS^G12C [2] (setting [3]), 100 to 1000 nM. Also, the Dmax on HiBit-KRAS^G12C [2] (maximum degradation) was less than 35%.
`C=CC(=O)N1CCN(c2nc(OCCN3CCC(COc4cc([C@@H](C(=O)N5C[C@H](O)C[C@H]5C(=O)N[C@@H](C)c5ccc(C#N)cc5)C(C)C)on4)CC3)nc3c(F)c(-c4cc(O)cc5ccccc45)c(Cl)cc23)C[C@@H]1CC#N` [Compound 161, (2S,4R)-1-[(2S)-2-[3-({1-[2-({6-chloro-4-[(3S)-3-(cyanomethyl)-4-(prop-2-enoyl)piperazin-1-yl]-8-fluoro-7-(3-hydroxynaphthalen-1-yl)quinazolin-2-yl}oxy)ethyl]piperidin-4-yl}methoxy)-1,2-oxazol-5-yl]-3-methylbutanoyl]-N-[(1S)-1-(4-cyanophenyl)ethyl]-4-hydroxypyrrolidine-2-carboxamide]: the Dmax at HiBit-KRAS^G12C [1] and on HiBit-KRAS^G12C [2] (maximum degradation) was 35 to 70% throughout. The DC50 was less than 100 nM at HiBit-KRAS^G12C [1] (SW1573 HiBit-KRas^G12C) and 100 to 1000 nM on HiBit-KRAS^G12C [2] (setting [3]).
Regarding `Cc1ncsc1-c1ccc([C@H](C)NC(=O)[C@@H]2C[C@@H](O)CN2C(=O)[C@@H](NC(=O)COCC2CCN(CCOc3nc(N4CCN(C(=O)/C=C/CN5CCOCC5)[C@@H](CC#N)C4)c4cc(Cl)c(-c5cc(O)cc6ccccc56)c(F)c4n3)CC2)C(C)(C)C)cc1` [Compound 164, (2S,4R)-1-[(2S)-2-[2-({1-[2-({6-chloro-4-[(3S)-3-(cyanomethyl)-4-[(2E)-4-(morpholin-4-yl)but-2-enoyl]piperazin-1-yl]-8-fluoro-7-(3-hydroxynaphthalen-1-yl)quinazolin-2-yl}oxy)ethyl]piperidin-4-yl}methoxy)acetamido]-3,3-dimethylbutanoyl]-4-hydroxy-N-[(1S)-1-[4-(4-methyl-1,3-thiazol-5-yl)phenyl]ethyl]pyrrolidine-2-carboxamide], the Dmax on HiBit-KRAS^G12C [1] and on HiBit-KRAS^G12C [2] (maximum degradation) was 35 to 70% each time. For the same compound, the DC50 on HiBit-KRAS^G12C [1] (SW1573 HiBit-KRas^G12C) was 100 to 1000 nM; on HiBit-KRAS^G12C [2] (setting [3]), more than 1000 nM.
As for `Cc1ncsc1-c1ccc([C@H](C)NC(=O)[C@@H]2C[C@@H](O)CN2C(=O)[C@@H](NC(=O)COCC2CCN(CCOc3nc(N4CCN(C(=O)/C=C/CN(C)C)[C@@H](CC#N)C4)c4cc(Cl)c(-c5cc(O)cc6ccccc56)c(F)c4n3)CC2)C(C)(C)C)cc1` [Compound 165, (2S,4R)-1-[(2S)-2-[2-({1-[2-({6-chloro-4-[(3S)-3-(cyanomethyl)-4-[(2E)-4-(dimethylamino)but-2-enoyl]piperazin-1-yl]-8-fluoro-7-(3-hydroxynaphthalen-1-yl)quinazolin-2-yl}oxy)ethyl]piperidin-4-yl}methoxy)acetamido]-3,3-dimethylbutanoyl]-4-hydroxy-N-[(1S)-1-[4-(4-methyl-1,3-thiazol-5-yl)phenyl]ethyl]pyrrolidine-2-carboxamide], the Dmax on HiBit-KRAS^G12C [1] and at HiBit-KRAS^G12C [2] (maximum degradation) was 35 to 70% in each case. Also, the DC50 at HiBit-KRAS^G12C [1] (SW1573 HiBit-KRas^G12C) was 100 to 1000 nM; on HiBit-KRAS^G12C [2] (setting [3]), more than 1000 nM.
`C=C(F)C(=O)N1CCN(c2nc(OCCN3CCC(COc4cc([C@H](C(=O)N5C[C@H](O)C[C@H]5C(=O)N[C@@H](C)c5ccc(-c6scnc6C)cc5)C(C)C)on4)CC3)nc3c(F)c(-c4cc(O)cc5ccccc45)c(Cl)cc23)C[C@@H]1CC#N` [Compound 168, (2S,4R)-1-[(2R)-2-[3-({1-[2-({6-chloro-4-[(3S)-3-(cyanomethyl)-4-(2-fluoroprop-2-enoyl)piperazin-1-yl]-8-fluoro-7-(3-hydroxynaphthalen-1-yl)quinazolin-2-yl}oxy)ethyl]piperidin-4-yl}methoxy)-1,2-oxazol-5-yl]-3-methylbutanoyl]-4-hydroxy-N-[(1S)-1-[4-(4-methyl-1,3-thiazol-5-yl)phenyl]ethyl]pyrrolidine-2-carboxamide]: at HiBit-KRAS^G12C [1] (SW1573 HiBit-KRas^G12C), the “KRas^G12C-HiBiT (SW1573; 0.5% DMSO) Dmax**” value is “A (A ≥ 70)” and the DC50 lay within 100 to 1000 nM. For the same compound, at HiBit-KRAS^G12C [2] (MiaPaCa-2 HiBit-KRas^G12C cells, maximum degradation), the “KRas^G12C-HiBiT (MiaPaCa; 0.5% DMSO) DMax” value is “A (A ≥ 70)”. The DC50 on HiBit-KRAS^G12C [2] (setting [3]) fell in the range of 100 to 1000 nM.
